Our source for the EC50 values is USRE49735E1 (BRISTOL-MYERS SQUIBB COMPANY, priority 2010, dated 2023).

The test concerns the target human mGluR5A (Homo sapiens, UniProt P41594). Nature of the test: mGluR5 FLIPR Assay. The test is classed as cell-based. Conditions: positive modulator activity; HEK293 (ZF) cells with human mGluR5A and rat GLAST; Ca++ response to ~EC10 glutamate.

Each structure is given as a SMILES string. Several values for one entry are separate records, joined by “and”; a condition that tells them apart may be missing. Identical values can stand only once.

human mGluR5A, sequence (P41594 21-1180 isoform P41594-2): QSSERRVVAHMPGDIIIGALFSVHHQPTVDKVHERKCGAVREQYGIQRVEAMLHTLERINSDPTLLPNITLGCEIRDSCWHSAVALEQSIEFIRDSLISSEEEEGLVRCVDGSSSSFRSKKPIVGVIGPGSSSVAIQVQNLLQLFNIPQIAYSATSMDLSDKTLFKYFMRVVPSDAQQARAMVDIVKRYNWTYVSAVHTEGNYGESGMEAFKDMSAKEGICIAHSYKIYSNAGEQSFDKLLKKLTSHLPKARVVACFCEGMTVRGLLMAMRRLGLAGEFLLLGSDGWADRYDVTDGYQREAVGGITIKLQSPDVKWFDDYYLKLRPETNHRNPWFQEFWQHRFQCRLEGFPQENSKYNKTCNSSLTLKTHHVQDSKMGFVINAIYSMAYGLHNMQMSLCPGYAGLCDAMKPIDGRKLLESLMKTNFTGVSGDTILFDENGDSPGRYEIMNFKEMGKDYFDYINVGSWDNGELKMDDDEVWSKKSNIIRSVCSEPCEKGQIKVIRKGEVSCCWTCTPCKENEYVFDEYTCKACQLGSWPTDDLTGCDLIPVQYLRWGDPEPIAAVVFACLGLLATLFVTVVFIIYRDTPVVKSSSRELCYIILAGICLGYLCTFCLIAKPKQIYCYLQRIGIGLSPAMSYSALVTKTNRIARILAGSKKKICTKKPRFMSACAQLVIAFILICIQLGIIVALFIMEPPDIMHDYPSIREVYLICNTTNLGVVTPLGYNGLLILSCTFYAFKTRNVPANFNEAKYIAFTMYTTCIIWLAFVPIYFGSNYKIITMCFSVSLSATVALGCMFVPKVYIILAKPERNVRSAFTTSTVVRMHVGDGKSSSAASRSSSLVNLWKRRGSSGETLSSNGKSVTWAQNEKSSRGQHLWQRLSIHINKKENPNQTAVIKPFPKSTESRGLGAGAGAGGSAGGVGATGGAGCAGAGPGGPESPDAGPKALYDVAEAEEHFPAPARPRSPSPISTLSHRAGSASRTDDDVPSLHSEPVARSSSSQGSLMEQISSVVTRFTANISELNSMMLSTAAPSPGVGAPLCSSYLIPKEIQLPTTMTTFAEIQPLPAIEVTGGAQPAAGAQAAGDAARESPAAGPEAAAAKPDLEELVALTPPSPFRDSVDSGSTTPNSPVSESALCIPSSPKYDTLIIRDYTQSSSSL

The EC50 is the concentration giving half of the maximal effect. Read a high EC50 as a less potent agent. Compound `O=C1N[C@H](c2cncc(C#Cc3ccc(Cl)cc3)c2)[C@@H](c2cc(F)ccc2F)O1` [Example 388, (4R,5R)-4-(5-((4-chlorophenyl)ethynyl)pyridin-3-y1)-5-(2,5-difluorophenyl)oxazolidin-2-one] came in with a concentration for a half-maximal effect (EC50) of 100 to 1000 nM.

With `O=C1N[C@H](c2cccc(C#Cc3ccccc3)c2)[C@@H](c2nc(-c3ccncc3)no2)O1` [Example 160], the half-maximal effective concentration (EC50) is over 1000 nM.

On to `O=C1N[C@H](c2cncc(C#Cc3ccccc3)c2)[C@H](c2ncco2)O1` (racemic) [Example 337, (±)-(4R,5R)-5-(Oxazol-2-yl)-4-(5-(phenylethynyl)pyridin-3-yl)oxazolidin-2-one], for which the EC50 is 100 to 1000 nM and 688 nM.

Regarding `O=C1N[C@H](c2cccc(C#Cc3cccnc3)c2)[C@@H](c2ccncc2)O1` [Example 235], the EC50 is 100 to 1000 nM and 211 nM.

`O=C1N[C@H](c2cccc(C#Cc3ccccc3)n2)[C@@H](c2ccccc2)O1` (single isomer, unassigned) [Example 10] had a concentration giving a half-maximal response (EC50) of under 100 nM.

In turn, `COc1ccccc1[C@@H]1OC(=O)N[C@H]1c1cncc(C#Cc2ccccc2)c1` (single isomer, unassigned) [Example 333] showed an EC50 of over 1000 nM.

`COc1cccc([C@H]2OC(=O)N[C@@H]2c2cccc(C#Cc3ccc(C#N)cc3)c2)c1` [Example 264] displayed an EC50 of 100 to 1000 nM.

Consider `C[C@@]1(c2ccc(F)cc2)OC(=O)N[C@@H]1c1cncc(C#Cc2ccccc2)c1` [Example 205], for which the EC50 was < 100 nM and 2.2 nM.

`C[C@]1(c2cc(F)ccc2F)OC(=O)N[C@H]1c1cncc(C#Cc2ccccc2)c1` [Example 291] returned a concentration giving a half-maximal response (EC50) of 100 to 1000 nM.

As to `O=C1N[C@H](c2ccnc(C#Cc3ccccc3)c2)[C@@H](c2cccnc2)O1` [Example 254], the EC50 is over 1000 nM.

Regarding `O=C1N[C@H](c2cncc(C#Cc3ccccc3F)c2)[C@@H](c2cccc(F)c2F)O1` [Example 284], the concentration for a half-maximal effect (EC50) was under 100 nM.

The compound `N#Cc1ccc(C#Cc2cncc([C@H]3NC(=O)O[C@@H]3c3cc(F)ccc3F)c2)cc1` [Example 391, 4-((5-((4R,5R)-5-(2,5-difluorophenyl)-2-oxooxazolidin-4-yl)pyridin-3-yl)ethynyl)benzonitrile] gave an EC50 of over 1000 nM.

`C[C@]1(c2cncc(C#Cc3ccccc3)c2)NC(=O)O[C@H]1c1ccccc1` [Example 226] displayed an EC50 of under 100 nM.

As for `O=C1N[C@H](c2cccc(C#Cc3ccccc3)n2)[C@@H](c2c(F)cc(F)cc2F)O1` (single isomer, unassigned) [Example 313], the EC50 was 100 to 1000 nM.

Turning to `Cc1noc([C@@H]2OC(=O)N[C@H]2c2cccc(C#Cc3ccccc3)c2)n1` [Example 167], the EC50 is over 1000 nM.

The compound `COc1cccc([C@H]2OC(=O)N[C@@H]2c2cccc(C#Cc3ccccc3OC)c2)c1` [Example 91, (4R,5R)-5-(3-Methoxyphenyl)-4-(3-((2-methoxyphenyl)ethynyl)phenyl)oxazolidin-2-one] came in with a half-maximal effective concentration (EC50) of 100 to 1000 nM.

For `O=C1N[C@H](c2nccc(C#Cc3ccccc3)n2)[C@@H](c2cccc(F)c2)O1` [Example 273], the EC50 was over 3000 nM.

With `O=C1N[C@H](c2cccc(C#Cc3cccc(F)c3)n2)[C@@H](c2ccc(F)cc2F)O1` (single isomer, unassigned) [Example 311], the EC50 is under 100 nM.

`O=C1N[C@H](c2cncc(C#Cc3ccccn3)c2)[C@@H](c2ccc(F)cc2F)O1` [Example 183] yielded a half-maximal effective concentration (EC50) of under 100 nM.

`COc1cccc([C@H]2OC(=O)N[C@@H]2c2cccc(C#Cc3ccc(F)cc3F)c2)c1` [Example 127, (4R,5R)-4-(3-((2,4-difluorophenyl)ethynyl)phenyl)-5-(3-methoxyphenyl)oxazolidin-2-one] yielded a concentration giving a half-maximal response (EC50) of 100 to 1000 nM.

`COc1cccc([C@@H]2OC(=O)N[C@H]2c2cccc(C#Cc3cc(F)cc(F)c3)c2)c1` [Example 124, (4S,5S)-4-(3-((3,5-difluorophenyl)ethynyl)phenyl)-5-(3-methoxyphenyl)oxazolidin-2-one] came in with a half-maximal effective concentration (EC50) of over 1000 nM.

`C[C@@]1(c2cncc(C#Cc3ncccc3F)c2)NC(=O)O[C@H]1c1ccccc1` [Example 230] registered a 50% effective concentration (EC50) of over 1000 nM.

On to `O=C1N[C@H](c2cccc(C#Cc3ccccc3)c2)[C@@H](c2nc(-c3cccnc3)no2)O1` [Example 164], for which the EC50 is over 1000 nM.

The compound `COc1cccc([C@H]2OC(=O)N[C@@H]2c2cccc(C#Cc3ccccc3C(F)(F)F)c2)c1` [Example 125, (4R,5R)-5-(3-methoxyphenyl)-4-(3-((2-(trifluoromethyl)phenyl)ethynyl)phenyl)oxazolidin-2-one] displayed a concentration giving a half-maximal response (EC50) of over 30000 nM.

In the case of `C[C@@]1(c2cncc(C#Cc3ccccc3)c2)NC(=O)O[C@H]1c1ccccc1` (single isomer, unassigned) [Example 137], the concentration for a half-maximal effect (EC50) fell in the range of 100 to 1000 nM.

Compound `COc1cccc([C@H]2OC(=O)N[C@@H]2c2cccc(C#Cc3cccc(C(F)(F)F)c3)c2)c1` [Example 129, (4R,5R)-5-(3-methoxyphenyl)-4-(3-((3-(trifluoromethyl)phenyl)ethynyl)phenyl)oxazolidin-2-one] yielded a 50% effective concentration (EC50) of over 1000 nM.

Compound `COc1cccc([C@H]2OC(=O)N[C@@H]2c2cccc(C#Cc3cccc(F)c3)c2)c1` [Example 133, (4R,5R)-4-(3-((3-fluorophenyl)ethynyl)phenyl)-5-(3-methoxyphenyl)oxazolidin-2-one] yielded an EC50 of under 100 nM.

`COc1cccc(C#Cc2cccc([C@H]3NC(=O)O[C@@H]3c3cccc(OC)c3)c2)c1` [Example 59, (4R,5R)-5-(3-Methoxyphenyl)-4-(3-((3-methoxyphenyl)ethynyl)phenyl)oxazolidin-2-one] returned an EC50 of under 100 nM.

Take `N#Cc1cccc(C#Cc2cc([C@H]3NC(=O)O[C@@H]3c3cccnc3)ccn2)c1` [Example 255]: the EC50 was over 1000 nM.

Consider `O=C1N[C@H](c2cc(C#Cc3ccc(F)cc3)ccn2)[C@@H](c2ccc(F)cc2)O1` (single isomer, unassigned) [Example 357], for which the EC50 is under 100 nM.

Compound `C[C@@]1(c2cccc(C#Cc3ccccc3)n2)NC(=O)O[C@@H]1c1ccccc1F` (single isomer, unassigned) [Example 376] came in with an EC50 of 100 to 1000 nM.

Compound `C[C@]1(c2cncc(C#Cc3ccccc3)c2)NC(=O)O[C@@H]1c1ccc(F)cc1` [Example 219] returned an EC50 of under 100 nM.

`O=C1N[C@H](c2cncc(C#Cc3ccccc3)c2)[C@@H](c2cccc(Cl)c2)O1` (single isomer, unassigned) [Example 362] yielded a half-maximal effective concentration (EC50) of under 100 nM.

Take `O=C1N[C@@H](c2cc(C#Cc3cccc(F)c3)ccn2)[C@H](c2ccc(F)cc2)O1` (single isomer, unassigned) [Example 356]: the EC50 was in the range of 100 to 1000 nM.

Turning to `O=C1N[C@H](c2cncc(C#Cc3ccccc3)c2)[C@@H](c2ccc(Cl)cc2)O1` (single isomer, unassigned) [Example 360], the concentration for a half-maximal effect (EC50) is < 100 nM and 2 nM.

Regarding `O=C1N[C@H](c2cncc(C#Cc3ccccc3)c2)[C@H](c2ccncn2)O1` (single isomer, unassigned) [Example 320], the concentration giving a half-maximal response (EC50) is under 100 nM.

`C[C@@]1(c2ccc(F)cc2)OC(=O)N[C@H]1c1cncc(C#Cc2cncc(F)c2)c1` [Example 207]: the 50% effective concentration (EC50) is over 1000 nM.

For the compound `COc1cccc([C@H]2OC(=O)N[C@@H]2c2cccc(C#Cc3ccnc(OC)c3)c2)c1` [Example 89, (4R,5R)-5-(3-Methoxyphenyl)-4-(3-((2-methoxypyridin-4-yl)ethnyl)phenyl)oxazolidin-2-one], the EC50 is over 1000 nM.
